Reference: the NIST ThermoML archive (doi:10.1007/s10765-019-2573-6)

Conditions: Liquid, Vibrating wire viscometry

CCCCOC(=O)CCCCC(=O)OCCCC [dibutyl hexanedioate]
viscosity [mPa·s]
Conditions | 100 kPa | 1000 kPa | 5000 kPa | 10000 kPa | 15000 kPa | 20000 kPa | 30000 kPa | 40000 kPa
283.15 K | – | – | – | – | 8.961 | – | 10.62 | 11.95
283.16 K | 7.383 | 7.493 | – | – | – | 9.508 | – | –
283.17 K | – | – | 7.896 | 8.407 | – | – | – | –
293.14 K | – | 5.566 | – | – | 6.585 | – | – | 8.724
293.15 K | 5.499 | – | 5.84 | 6.196 | – | 6.982 | 7.808 | –
303.15 K | 4.237 | – | 4.49 | 4.759 | 5.029 | 5.323 | 5.933 | 6.592
303.16 K | – | 4.288 | – | – | – | – | – | –
313.15 K | 3.375 | 3.411 | 3.566 | 3.769 | 3.979 | 4.197 | 4.66 | 5.153
323.15 K | – | 2.774 | 2.9 | 3.061 | 3.224 | 3.393 | 3.754 | 4.146
323.16 K | 2.746 | – | – | – | – | – | – | –
333.14 K | – | – | – | 2.54 | – | – | – | –
333.15 K | 2.282 | 2.304 | 2.407 | – | – | 2.814 | 3.106 | 3.412
333.16 K | – | – | – | – | 2.675 | – | – | –
343.15 K | 1.93 | 1.95 | 2.035 | 2.144 | 2.257 | 2.37 | 2.612 | 2.859
353.15 K | 1.655 | 1.672 | 1.746 | 1.839 | 1.933 | 2.031 | 2.23 | 2.438
363.15 K | 1.437 | 1.452 | – | – | 1.675 | 1.757 | 1.93 | 2.108
363.16 K | – | – | – | 1.594 | – | – | – | –
363.17 K | – | – | 1.513 | – | – | – | – | –

CCOC(=O)CCCCC(=O)OCC [diethyl hexanedioate]
viscosity [mPa·s]
Conditions | 100 kPa | 1000 kPa | 5000 kPa | 10000 kPa | 15000 kPa | 20000 kPa | 30000 kPa | 40000 kPa
283.15 K | 4.541 | 4.59 | 4.792 | 5.062 | 5.332 | 5.622 | – | 6.887
283.16 K | – | – | – | – | – | – | 6.223 | –
293.15 K | 3.486 | 3.521 | 3.672 | 3.868 | 4.075 | 4.278 | 4.722 | 5.195
303.15 K | 2.766 | 2.792 | 2.912 | 3.063 | 3.207 | 3.361 | 3.696 | 4.042
313.15 K | 2.252 | – | 2.362 | 2.478 | 2.597 | 2.721 | 2.978 | 3.251
313.16 K | – | 2.272 | – | – | – | – | – | –
323.15 K | 1.87 | 1.886 | 1.961 | 2.054 | 2.151 | 2.248 | 2.461 | 2.68
333.15 K | 1.579 | 1.592 | 1.653 | 1.734 | 1.814 | 1.896 | 2.066 | 2.249
343.15 K | 1.354 | 1.367 | 1.419 | 1.487 | 1.555 | 1.624 | 1.765 | 1.917
353.14 K | – | 1.187 | – | – | – | – | – | –
353.15 K | 1.177 | – | 1.233 | 1.292 | 1.351 | 1.411 | 1.534 | 1.662
363.15 K | 1.032 | 1.041 | 1.081 | 1.133 | 1.183 | 1.236 | 1.343 | 1.453

COC(=O)CCCCC(=O)OC [dimethyl 1,6-hexanedioate]
viscosity [mPa·s]
Conditions | 100 kPa | 1000 kPa | 5000 kPa | 10000 kPa | 15000 kPa | 20000 kPa | 30000 kPa | 40000 kPa
293.15 K | – | – | 3.46 | 3.623 | 3.787 | 3.958 | 4.333 | 4.722
293.17 K | 3.302 | 3.331 | – | – | – | – | – | –
303.15 K | – | – | 2.735 | 2.854 | – | – | – | –
303.16 K | – | – | – | – | 2.985 | 3.115 | 3.384 | 3.672
303.17 K | 2.617 | 2.637 | – | – | – | – | – | –
313.14 K | – | 2.151 | – | – | 2.422 | 2.522 | 2.727 | –
313.15 K | 2.129 | – | 2.227 | 2.326 | – | – | – | 2.955
323.14 K | – | – | – | – | – | – | – | 2.432
323.15 K | 1.774 | 1.789 | 1.85 | 1.928 | 2.008 | 2.089 | 2.254 | –
333.14 K | – | – | – | – | – | – | – | 2.046
333.15 K | 1.503 | 1.514 | 1.565 | 1.629 | 1.696 | 1.764 | 1.903 | –
343.15 K | 1.293 | 1.303 | 1.346 | 1.401 | 1.457 | 1.514 | 1.63 | 1.752
353.15 K | 1.128 | – | 1.174 | 1.221 | 1.269 | 1.317 | 1.417 | 1.52
353.16 K | – | 1.136 | – | – | – | – | – | –
363.13 K | – | – | – | – | 1.115 | 1.157 | – | –
363.15 K | 0.9897 | 0.9971 | 1.03 | 1.072 | – | – | 1.244 | 1.332

CCCOC(=O)CCCCC(=O)OCCC [dipropyl hexanedioate]
viscosity [mPa·s]
Conditions | 100 kPa | 1000 kPa | 5000 kPa | 10000 kPa | 15000 kPa | 20000 kPa | 30000 kPa | 40000 kPa
283.15 K | 6.153 | 6.217 | 6.536 | 6.943 | 7.36 | 7.811 | 8.759 | 9.76
293.14 K | – | 4.65 | – | – | – | – | – | –
293.15 K | 4.599 | – | 4.87 | 5.155 | 5.456 | 5.773 | 6.429 | 7.169
303.15 K | 3.567 | 3.604 | 3.766 | 3.983 | 4.205 | 4.434 | 4.938 | 5.457
313.15 K | 2.854 | 2.889 | 3.014 | 3.178 | 3.347 | 3.519 | 3.899 | 4.293
323.14 K | – | – | – | 2.592 | – | – | – | –
323.15 K | 2.34 | 2.364 | 2.464 | – | 2.725 | 2.867 | 3.157 | 3.475
333.15 K | 1.954 | 1.973 | 2.058 | 2.163 | 2.275 | 2.391 | 2.624 | 2.875
343.15 K | 1.658 | 1.673 | 1.744 | 1.835 | 1.928 | 2.019 | 2.216 | 2.42
353.15 K | 1.426 | 1.44 | 1.5 | 1.577 | 1.654 | 1.736 | 1.9 | 2.074
363.15 K | 1.242 | 1.253 | 1.306 | 1.371 | 1.439 | 1.508 | 1.649 | 1.798
